Test results taken from patent US9782379B2, “Use of protectin DX for the stimulation of muscular IL-6 secretion” (Universite Laval, priority 2013, dated 2017).

Legend:
C2C12 myotubes = experiment: IL-6 expression and release and AMPK phosphorylation in cultured C2C12 myotubes; format: cell-based; details: 100 nM of each lipid mediator vs vehicle
Protocol: C2C12 myoblasts were maintained in DMEM containing 10% FBS. Differentiation to myotubes was initiated by addition of DMEM containing 2% horse serum. The experiment was conducted 5 days after the addition of the differentiation media. Immediately prior to the commencement of experiments fresh media was added to the cells. Then vehicle or PDX (10, 100, and 1000 nM) was added to the appropriate wells. 30 and 120 minutes after the addition of PDX media was collected and frozen for IL-6 quantification and cells were washed in ice cold PBS. For extraction of mRNA cells were then lysed and scraped in 300 μl of RLT buffer (QIAGEN). For examination of AMPK activity cells were lysed and scraped in 200 μl of ice cold lysis buffer containing 50 mM HEPES pH7.5, 150 mM NaCl, 1 mM EGTA, 20 mM b-glycerophosphate, 1% NP40, 10 mM NaF, 2 mM Na3VO4, 1× protease inhibitor cocktail (Sigma).
Snap frozen gastrocnemius muscle and liver from mice were pulverized in liquid nitrogen then lysed overnight at 4° C. in the lysis buffer described for the C2C12 myotube experiments. Immunoblotting of myotube, macrophage, liver and muscle lysates was then performed as previously described^5. Briefly, 50 ug of protein was loaded onto a 7.5% acrylamide gel, subjected to SDS-PAGE then transferred onto nitrocellulose membranes. Membranes were then blocked and probed with the appropriate antibodies. Antibodies for p-Akt ser473, p-JNK thr183/tyr185, JNK, p-AMPK thr172, AMPK, p-STAT-3 ser727 and STAT-3 were obtained from Cell Signaling Technology (MA, USA). Antibodies for total Akt and iNOS were from Santa Cruz Biotechnology (CA, USA) and BD Transduction Laboratories™ (Canada) respectively.
RNA was extracted from C2C12 myotubes using an RNeasy® mini kit from QIAGEN. RNA from homogenized liver tissue was extracted using an RNeasy® fibrous tissue mini kit from QIAGEN. RNA was then reverse transcribed to cDNA using the high-capacity cDNA reverse transcription kit from applied biosystems. Real-time PCR for Ppargc1, Pck1, G6Pc, and GAPDH was then performed using Taqman assay on demand probes and primers from Applied Biosystems in a CFX96 real-time system from BIO-RAD. The relative expression of genes of interest was then determined by normalization to the housekeeping gene GAPDH using the comparative CT method for relative gene expression^30.
Chemokines and cytokines were quantified in macrophage media, or mouse plasma using the MILLIPLEX™ MAP mouse cytokine/chemokine kit (Millipore Corporation, MA, USA). Nitrite accumulation in media was determined by Greiss assay as previously described^25. Plasma insulin levels were assessed by RIA (Linco, MI, USA). FFA were measured using an enzymatic colorimetric assay (Wako Chemicals, VA, USA). Skeletal muscle and liver IL-6 were quantified using the mouse IL-6 ELISA kit from R&D systems. Total plasma adiponectin was determined using the ELISA from ALPCO.

T37i brown adipocytes = experiment: IL-6 release from cultured brown adipocytes; format: cell-based; details: norepinephrine 1 μM as adrenergic stimulus
Description: Since brown adipose tissue was recently shown to regulate glucose homeostasis via secretion of IL-6^20 we also examined whether PDX might raise circulating IL-6 by stimulating brown fat.

Row | Structure (SMILES) | IL-6 release from muscle cells (C2C12 myotubes) | release of IL-6 (T37i brown adipocytes)
1 | CCCCCC(O)/C=C/C=C\C=C\[C@@H](O)C/C=C\CCCC(=O)O (stereo partly drawn) [8(S),17(S)DiHETE, 8S,15S-dihydroxy-5Z,9E,11Z,13E-eicosatetraenoic acid, reference compound] | not present | –
2 | CC/C=C\C[C@H](O)\C=C/C=C/C=C/[C@H](O)C/C=C\C/C=C\CCC(=O)O [PD1, 10R,17S-dihydroxy-docosa-4Z,7Z,11E,13E,15Z,19Z-hexaenoic acid, reference compound] | not present | –
3 | NC[C@H](O)c1ccc(O)c(O)c1 [norepinephrine, reference compound] | – | released IL-6
4 | CC/C=C\CC(O)/C=C/C=C\C=C\C=C\C(O)[C@@H](O)C/C=C\CCC(=O)O (stereo partly drawn) [RvD1, 7S,8R,17S-trihydroxy-4Z,9E,11E,13Z,15E,19Z-docosahexaenoic acid, reference compound] | not present | –
